According to article PMC11729428, “New Potent Inhibitor of Transforming Growth Factor-Beta (TGFβ) Signaling that is Efficacious against Microsatellite Stable Colorectal Cancer Metastasis in Combination with Immune Checkpoint Therapy in Mice” (ACS Pharmacology & Translational Science, 2024):
Like-named read-outs stand apart in the source and are kept apart here.

Legend:
[1] = Literature oral pharmacokinetics in mice; assay type: in vivo; details: female, mouse, plasma, mice (♀ CD-1), 75 mg/kg, estimated using AUClast of ref 20
Description: Table 2 Pharmacokinetics of HYL001 in Preclinical Species after Oral Administration ^a | column: Cl/F (mL/min/kg)

ALK4 (ACVR1B) = target: T1, ALK4 (ACVR1B) (Homo sapiens, UniProt P36896); details: reported data ref 15, read-out: Binding constant (Kd) ALK4 (ACVR1B), cited from earlier work
T1 sequence (P36896 24-505): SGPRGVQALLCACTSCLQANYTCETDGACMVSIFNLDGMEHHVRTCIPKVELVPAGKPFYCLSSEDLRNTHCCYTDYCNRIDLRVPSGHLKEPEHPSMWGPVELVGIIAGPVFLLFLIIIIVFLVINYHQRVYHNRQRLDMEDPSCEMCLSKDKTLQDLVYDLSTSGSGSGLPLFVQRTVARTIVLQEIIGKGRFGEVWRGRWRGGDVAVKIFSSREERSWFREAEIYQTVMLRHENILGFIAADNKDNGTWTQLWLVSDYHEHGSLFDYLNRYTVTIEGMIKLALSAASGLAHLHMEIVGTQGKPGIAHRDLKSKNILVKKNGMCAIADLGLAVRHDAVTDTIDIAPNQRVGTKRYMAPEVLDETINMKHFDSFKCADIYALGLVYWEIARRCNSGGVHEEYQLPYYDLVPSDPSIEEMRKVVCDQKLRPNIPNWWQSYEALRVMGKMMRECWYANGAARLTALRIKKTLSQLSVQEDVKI

ACVR2B = target: T2, ACVR2B (Homo sapiens, UniProt Q13705); test: KINOMEscan competitive binding assay (Kd); details: analyses herein; read-out: Binding constant (Kd) ACVR2B
T2 construct: purchased Eurofins/DiscoveryX (KINOMEscan service)
Description: (§1) 5. Methods for In vitro characterizations of HYL001
(§2) Kinase affinity and selectivity
(§3) Kd values were obtained by an 11 -point
(§4) (BMPR1A), ALK4 (ACVR1B), ALK6 (BMPR1B), ACVR2B and TGFβ R2. […]

ALK1 (ACVRL1) = target: T3, ALK1 (ACVRL1) (Homo sapiens, UniProt P37023); test: KINOMEscan competitive binding assay (Kd); details: analyses herein; read-out: Binding constant (Kd) ALK1 (ACVRL1)
T3 construct: purchased Eurofins/DiscoveryX (KINOMEscan service)
Description: as §1, §2, §3, §4

ALK2 (ACVR1) = target: T4, ALK2 (ACVR1) (Homo sapiens, UniProt Q04771); test: KINOMEscan competitive binding assay (Kd); details: analyses herein; read-out: Binding constant (Kd) ALK2 (ACVR1)
T4 construct: purchased Eurofins/DiscoveryX (KINOMEscan service)
Description: as §1, §2, §3, §4

ALK3 (BMPR1A) = target: T5, ALK3 (BMPR1A) (Homo sapiens, UniProt P36894); test: KINOMEscan competitive binding assay (Kd); details: analyses herein; read-out: Binding constant (Kd) ALK3 (BMPR1A)
T5 construct: purchased Eurofins/DiscoveryX (KINOMEscan service)
Description: as §1, §2, §3, §4

ALK6 (BMPR1B) = target: T6, ALK6 (BMPR1B) (Homo sapiens, UniProt O00238); test: KINOMEscan competitive binding assay (Kd); details: analyses herein; read-out: Binding constant (Kd) ALK6 (BMPR1B)
T6 construct: purchased Eurofins/DiscoveryX (KINOMEscan service)
Description: as §1, §2, §3, §4

TGFBR2 = target: T7, TGFBR2 (Homo sapiens, UniProt P37173); test: KINOMEscan competitive binding assay (Kd); details: analyses herein; read-out: Binding constant (Kd) TGFBR2
T7 construct: purchased Eurofins/DiscoveryX (KINOMEscan service)
Description: as §1, §2, §3, §4

[2] = Plasma protein binding by rapid equilibrium dialysis, rat plasma
Method: 5. Methods for In vitro characterizations of HYL001 […]
Rapid equilibrium dialysis was performed in triplicates with a rapid equilibrium dialysis (RED) by Sai Life Sciences Lt. (Telangana, India). The RED device contains a dialysis membrane with a molecular weight cut -off […]
of 8,000 Da, separating two chambers for plasma and buffer, respectively. […]
were added to the plasma chamber, versus phosphate buffer saline (pH 7.4) to the buffer chamber. Dialysis was performed for 4 h with 100 RPM shaking at 37 °C. […]
compounds in plasma were either frozen immediately (T0 sample), or incubated at 37 °C for 4 h without dialysis (non-dialysed), respectively.
Following dialysis, an aliquot was removed from either chamber and diluted with equal volume of opposite matrix to nullify the matrix effect. Similarly, buffer was added to recovery and stability samples. Next, acetonitrile (containing internal standard, glipizide) was added to the mixtures for protein precipitation and vortexed for 5 minutes. The samples were centrifuged at 4000 RPM at 4 °C for 10 min and the supernatant was submitted for liquid chromatography mass spectrometry (LC-MS/MS) analysis. Samples were monitored for parent compound using multiple reaction monitoring (MRM) mode.
The peak area ratios (PAR, analyte versus internal standard) in plasma vs bufffer were used to determine the fraction of compound bound to plasma proteins. The following equation was used to determine the extent of plasma protein binding: percent free drug = 100% x (PARbuffer / PARplasma); percent bound drug = 100 - % free drug. Recovery was calculated as 100% x (PARplasma + PARbuffer)dialysed / (PARplasma)non-dialysed; stability as 100% x (PAR)non-dialysed / (PARplasma)frozen at T0. […]

[3] = Plasma pharmacokinetics after single oral administration in rats; assay type: in vivo, Sprague Dawley rats; details: 71 mg/kg, rats (♂ SD)
Method: We assessed the in vivo pharmacokinetic properties of HYL001 after a single oral administration (dose of 71 mg/kg) in BALB/c mice as well as in Sprague–Dawley (SD) Rats. Liquid chromatography–tandem mass spectrometry (LC/MS/MS) was used for the determination of HYL001 in plasma (Figure S2 and Table 2).
6. Methods for in vivo characterizations of HYL001
Similarly, three rats were used in this study. Animals were administered orally with a suspension formulation of […]

[4] = male, Sprague-Dawley, rat, plasma

T4 sequence (Q04771 21-509): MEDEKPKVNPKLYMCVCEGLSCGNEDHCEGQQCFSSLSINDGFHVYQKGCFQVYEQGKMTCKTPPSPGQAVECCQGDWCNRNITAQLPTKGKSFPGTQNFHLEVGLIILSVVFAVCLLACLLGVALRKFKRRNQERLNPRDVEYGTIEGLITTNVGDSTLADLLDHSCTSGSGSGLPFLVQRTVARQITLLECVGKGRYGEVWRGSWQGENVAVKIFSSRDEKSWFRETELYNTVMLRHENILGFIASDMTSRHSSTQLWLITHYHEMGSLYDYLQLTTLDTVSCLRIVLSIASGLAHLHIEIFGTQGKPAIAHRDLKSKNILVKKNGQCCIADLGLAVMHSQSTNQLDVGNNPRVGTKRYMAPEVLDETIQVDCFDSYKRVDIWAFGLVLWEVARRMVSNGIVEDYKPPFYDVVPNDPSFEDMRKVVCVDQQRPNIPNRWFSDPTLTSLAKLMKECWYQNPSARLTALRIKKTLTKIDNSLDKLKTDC
T5 sequence (P36894 24-532): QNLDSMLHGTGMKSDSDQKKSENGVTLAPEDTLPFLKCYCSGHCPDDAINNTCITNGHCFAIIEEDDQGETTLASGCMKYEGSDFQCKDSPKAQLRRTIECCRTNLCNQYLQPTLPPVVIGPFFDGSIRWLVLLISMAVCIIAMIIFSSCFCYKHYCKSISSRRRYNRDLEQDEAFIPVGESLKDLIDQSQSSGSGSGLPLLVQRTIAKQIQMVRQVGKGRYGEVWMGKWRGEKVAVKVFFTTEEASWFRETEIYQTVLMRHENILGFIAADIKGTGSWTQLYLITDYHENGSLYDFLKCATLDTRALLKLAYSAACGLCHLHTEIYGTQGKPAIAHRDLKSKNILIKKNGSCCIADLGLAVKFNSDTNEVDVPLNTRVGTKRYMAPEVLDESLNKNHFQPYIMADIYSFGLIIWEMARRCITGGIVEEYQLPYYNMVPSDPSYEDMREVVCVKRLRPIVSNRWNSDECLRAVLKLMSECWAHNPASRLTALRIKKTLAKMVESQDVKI
T3 sequence (P37023 22-503): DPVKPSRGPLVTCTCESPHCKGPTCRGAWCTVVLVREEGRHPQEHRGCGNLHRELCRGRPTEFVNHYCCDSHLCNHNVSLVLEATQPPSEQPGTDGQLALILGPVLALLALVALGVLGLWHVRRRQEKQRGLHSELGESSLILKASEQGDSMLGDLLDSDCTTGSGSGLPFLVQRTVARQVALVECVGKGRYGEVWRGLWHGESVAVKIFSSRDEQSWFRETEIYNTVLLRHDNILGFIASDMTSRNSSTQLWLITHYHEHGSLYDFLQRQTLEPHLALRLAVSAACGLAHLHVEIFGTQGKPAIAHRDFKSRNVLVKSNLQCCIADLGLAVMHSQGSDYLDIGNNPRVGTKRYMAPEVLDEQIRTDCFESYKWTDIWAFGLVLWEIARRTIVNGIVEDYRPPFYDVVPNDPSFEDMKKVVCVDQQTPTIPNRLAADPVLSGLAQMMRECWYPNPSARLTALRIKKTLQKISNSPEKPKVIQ
T2 sequence (Q13705 19-512): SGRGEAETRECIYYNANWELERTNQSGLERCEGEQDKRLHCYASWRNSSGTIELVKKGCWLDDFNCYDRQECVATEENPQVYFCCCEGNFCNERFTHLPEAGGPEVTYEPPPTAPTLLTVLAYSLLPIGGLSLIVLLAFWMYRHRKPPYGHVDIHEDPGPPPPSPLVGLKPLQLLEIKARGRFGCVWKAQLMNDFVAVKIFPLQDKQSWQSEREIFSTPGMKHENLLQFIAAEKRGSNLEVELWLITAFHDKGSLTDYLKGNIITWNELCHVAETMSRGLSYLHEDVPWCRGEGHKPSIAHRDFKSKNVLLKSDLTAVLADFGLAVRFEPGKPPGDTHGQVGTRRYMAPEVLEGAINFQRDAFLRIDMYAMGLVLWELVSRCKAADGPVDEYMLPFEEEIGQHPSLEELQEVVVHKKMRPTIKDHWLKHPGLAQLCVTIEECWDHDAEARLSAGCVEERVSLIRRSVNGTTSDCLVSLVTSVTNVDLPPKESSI
T6 sequence (O00238 14-502): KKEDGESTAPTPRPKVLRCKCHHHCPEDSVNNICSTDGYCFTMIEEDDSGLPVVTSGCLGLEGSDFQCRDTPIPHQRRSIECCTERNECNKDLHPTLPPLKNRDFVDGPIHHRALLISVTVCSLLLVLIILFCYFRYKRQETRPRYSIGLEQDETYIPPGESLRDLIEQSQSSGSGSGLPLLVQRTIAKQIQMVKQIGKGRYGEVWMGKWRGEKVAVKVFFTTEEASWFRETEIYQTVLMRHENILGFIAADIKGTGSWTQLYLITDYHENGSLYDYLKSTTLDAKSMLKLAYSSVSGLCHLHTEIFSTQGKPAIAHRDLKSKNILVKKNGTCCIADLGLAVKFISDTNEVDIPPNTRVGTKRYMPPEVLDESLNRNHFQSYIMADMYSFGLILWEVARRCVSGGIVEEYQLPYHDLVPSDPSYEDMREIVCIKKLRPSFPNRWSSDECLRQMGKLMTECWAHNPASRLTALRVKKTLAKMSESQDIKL
T7 sequence (P37173 23-567): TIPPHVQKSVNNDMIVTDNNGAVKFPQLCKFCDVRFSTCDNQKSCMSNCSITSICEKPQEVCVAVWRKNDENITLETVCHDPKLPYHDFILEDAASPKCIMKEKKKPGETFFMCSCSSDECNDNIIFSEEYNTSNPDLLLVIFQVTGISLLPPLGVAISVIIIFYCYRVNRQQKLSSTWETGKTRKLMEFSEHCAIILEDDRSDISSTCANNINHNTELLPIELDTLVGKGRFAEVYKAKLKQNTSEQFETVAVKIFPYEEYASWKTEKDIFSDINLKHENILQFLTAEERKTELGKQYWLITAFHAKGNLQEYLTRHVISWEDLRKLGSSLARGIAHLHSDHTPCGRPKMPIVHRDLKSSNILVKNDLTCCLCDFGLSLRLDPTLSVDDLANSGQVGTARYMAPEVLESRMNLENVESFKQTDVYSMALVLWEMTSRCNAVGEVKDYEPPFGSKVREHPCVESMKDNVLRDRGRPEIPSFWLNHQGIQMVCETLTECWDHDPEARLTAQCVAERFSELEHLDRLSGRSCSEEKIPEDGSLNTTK

SMILES: Cc1cccc(-c2nn3c(c2-c2ccnc4ccc(C(N)=O)cc24)CCC3)n1 [galunisertib]
- CL/F [1]: 402 mL/min/kg
- Kd (ALK4 (ACVR1B); listed as Galunisertib): 77.7 nM
- Kd (ALK4 (ACVR1B)): ~78 nM

SMILES: Cc1cccc(-c2nn3c(c2-c2ccnc4ccc(O)cc24)CCC3)n1 [HYL001, 4-(2-(6-Methylpyridin-2-yl)-5,6-dihydro-4H-pyrrolo[1,2-b]pyrazol-3-yl)quinolin-6-ol]
- Kd (ACVR2B): 100 nM
- Kd (ALK1 (ACVRL1)): 11 µM
- Kd (ALK2 (ACVR1)): 7.5 µM
- Kd (ALK3 (BMPR1A)): 6.9 µM
- Kd (ALK6 (BMPR1B)): 160 nM
- Kd (TGFBR2): 2000 nM
- % Free fraction ([2]; rat plasma): 4.9%
- % Compound remaining at 4 hrs ([2]; rat plasma, 37 °C): 106.1%
- recovery at 4 h, 5 µM ([2]; rat, plasma (rapid equilibrium dialysis device), pH 7.4): 100%
- fraction unbound at 4 h, 5 µM ([2]; rat, plasma, pH 7.4): 0.049
- half-life ([3]; male, Sprague-Dawley, rat, plasma, po): ~300 min
- AUC(0-inf) [3, 4]: 22000 ng·h/mL
- AUC(0-t) [3, 4]: 21600 ng·h/mL
- CL/F [3, 4]: 53.8 mL/min/kg
- Cmax [3, 4]: 8540 ng/mL
- Tmax [3, 4]: 40.2 min
- Vd/F ([3]; male, Sprague-Dawley, rat, plasma, read-out: Vss/F): 10.8 L/kg
- T1/2 [3]: 4.8 h
